Laboratory results reported in patent US9758412B2, “Device for purifying liquid wastewater, and method for cleaning liquid wastewater using said device” (CENTRE NATIONAL DE LA RECHERCHE SCIENTIFIQUE (C.N.R.S.), priority 2012, dated 2017).

What was measured:
[1] = tested on: Xenopus larvae; conditions: cyclophosphamide 20 mg/L in river water; compared with negative control T(−) and sanitized water D8
[2] = tested on: Xenopus larvae; conditions: stage 50 to 54, devices: diuron-spiked tank water after 10 days of circulation, T(+): cyclophosphamide 20 mg/L in river water
Method: The mass of Tubifex tubifex worms is of the order of 500 mg (fresh weight) per sanitizing device and is representative of the average density of these oligochaete worms in the natural environment (56 000 oligochaete worms/m^2 of river).
The acute toxicity of the sanitized water is measured by incubating Xenopus larvae, selected at a stage of development of 50 to 54 […], for a period of 12 days with said sanitized water on larvae. This measurement permits observation of the signs of intoxication of the larvae induced by exposure to the water obtained at the outlet of the sanitizing device at the end of treatment.

## O=P1(N(CCCl)CCCl)NCCCO1 (stereo not drawn) [T(+), cyclophosphamide]
[1]
  Genotoxicity (induction of micronuclei): confirmed genotoxicity
[2]
  Toxicity, 1 to 5 days: Lethal
  Toxicity, 5 to 12 days: Lethal
